Data on 21 molecules can be found in patent US6156316A, “Oncogene fusion protein peptide vaccines” (Sloan-Kettering Institute for Cancer Research, priority 1995, dated 2000).

No end group written: not given here. Where only a bound is given, the exact number is not on record here.

For the first test, the target named is T1, HLA A2.1 (Homo sapiens, UniProt P04439, D140Y/D185E/D98H/E176V/E277Q/G131W/G231S/I119V/I121R/I166T/I218V/L300P/L318F/N151K/N90K/P208A/P217A/Q86G/Q94H/R138H/R169H/T345S).
T1 construct: endogenous in cells
Nature of the test: biochemical. The format is binding.
Conditions: not given
The source says: (§1) Purification of HLA class I molecules.
As to `CC[C@H](C)[C@H](NC(=O)[C@@H](NC(=O)[C@@H](N)CC(C)C)[C@@H](C)O)C(=O)N[C@@H](CC(N)=O)C(=O)N[C@@H](CCCCN)C(=O)N[C@@H](CCC(=O)O)C(=O)N[C@@H](CCC(=O)O)C(=O)N[C@@H](C)C(=O)N[C@@H](CC(C)C)C(=O)O` [LTINKEEAL], the IC50 is > 30 µM. As for ATGFKQSSKAL [ATGFKQSSKAL], the IC50 is > 30 µM.

On to CITQGKAI, for which the IC50 was > 50 µM.

With DLSSCITQGKA, the IC50 is > 50 µM. Turning to HVASGAGEAAI, the IC50 was > 50 µM.

With PLTINKEEA, the IC50 is > 30 µM. In the case of PLTINKEEAL [PLTINKEEAL], the IC50 is > 30 µM. The same measure, in the same setting: as for TINKEEAL [TINKEEAL], the figure is > 30 µM; as for VASGAGEAAI, > 50 µM.

The target in a further test is T2, HLA A3.2 (Homo sapiens, UniProt P04439).
T2 construct: endogenous in cells
T2 sequence (P61769 21-119): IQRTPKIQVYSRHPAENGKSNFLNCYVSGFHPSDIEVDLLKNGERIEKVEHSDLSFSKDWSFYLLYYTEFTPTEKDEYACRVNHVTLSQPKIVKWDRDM
T2 sequence (P04439 25-365): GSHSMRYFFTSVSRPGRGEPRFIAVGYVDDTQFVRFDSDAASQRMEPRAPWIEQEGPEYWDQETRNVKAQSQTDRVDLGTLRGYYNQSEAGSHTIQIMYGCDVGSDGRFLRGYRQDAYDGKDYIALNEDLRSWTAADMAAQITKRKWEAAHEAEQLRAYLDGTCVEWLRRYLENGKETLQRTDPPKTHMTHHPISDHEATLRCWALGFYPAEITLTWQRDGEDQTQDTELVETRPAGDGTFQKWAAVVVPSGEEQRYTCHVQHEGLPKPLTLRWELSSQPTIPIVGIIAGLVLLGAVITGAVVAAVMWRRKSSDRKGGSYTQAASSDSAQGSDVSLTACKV
Put plainly: biochemical. The test is classed as binding.
Conditions: not given
From the text: as §1
KQSSKALQR: the IC50 is 43 nM. Take LTINKEEALQR: the IC50 was > 30000 nM. For the molecule QSSKALQR, the concentration for half-maximal inhibition (IC50) was > 30000 nM.

Staying with this test, now noted: AFFINITY (nM) A3.2, Table 1, CML peptides; 50% inhibition of standard peptide binding.
Take ATGFKQSSK: the IC50 stood at 300 nM. In the case of FKQSSKALQR, the IC50 was found to be 545 nM. Still for that read-out and setting: as for GFKQSSKALQR, the figure is 810 nM; as for HSATGFKQSSK, 400 nM; as for SATGFKQSSK, 5450 nM.

As to TGFKQSSK, the IC50 is > 30000 nM. On the same count and under the same terms, for TINKEEALQR the value was > 30000 nM.

Still in this test, the particulars now being: concentration for 50% inhibition, HLA A3.2, text b187.
In turn, ATGFKQSSK yielded an IC50 of 100 to 500 nM.

The molecule HSATGFKQSSK yielded an IC50 of 400 nM.

For another test, the system named is FeLV subunit vaccine.
Assay: not given
To be noted: cats; cited from earlier work.
With QS-21, the “augmenting the immunogenicity of an FeLV subunit vaccine” value was “highly effective”.

A further test deals with HIV-1 recombinant vaccine.
Assay: not given
The conditions noted are these: Rhesus monkeys; cited from earlier work.
For the molecule QS-21, the “augmenting the immunogenicity of an HIV-1 recombinant vaccine” value is “highly effective”.

For a further test, the target named is HLA B7 (Homo sapiens, UniProt P01889). Put plainly: biochemical.
Sequence of HLA B7 (P01889 25-362): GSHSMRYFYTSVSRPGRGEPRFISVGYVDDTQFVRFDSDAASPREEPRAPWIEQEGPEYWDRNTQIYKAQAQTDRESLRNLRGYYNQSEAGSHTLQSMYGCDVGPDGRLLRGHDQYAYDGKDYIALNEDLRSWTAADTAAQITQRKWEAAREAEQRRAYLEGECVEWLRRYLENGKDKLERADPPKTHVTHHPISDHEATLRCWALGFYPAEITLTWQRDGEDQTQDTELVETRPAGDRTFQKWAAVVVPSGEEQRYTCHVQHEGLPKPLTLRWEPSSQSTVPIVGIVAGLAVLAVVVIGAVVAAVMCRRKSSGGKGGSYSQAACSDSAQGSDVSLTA
Sequence of HLA B7 (P61769 21-119, further chain): as the sequence (P61769 21-119) above
Conditions: not given
Regarding IPLTINKEEAL [IPLTINKEEAL], the IC50 was > 30 µM.

In general, IC50 refers to the concentration needed to halve the response being measured. Lower therefore signals inhibition by little substance.
